Reference: patent US20250296939A1, “BENZOTHIOPHENE COMPOUND” (Kyoto Pharmaceutical Industries, Ltd., priority 2022, published 2025)

Experiments:
[1] = target: GST-fused human Keap1 (amino acid residues: 325-642) protein (Homo sapiens (Human), UniProt Q14145); assay: FP assay (in vitro): inhibition of binding between Nrf2 and Keap1 by fluorescence polarization; settings: 20 nM GST-fused human Keap1, 10 nM FITC-labeled Nrf2 peptide, 2 hr at room temperature
Procedure: Experimental Example 1: FP Assay (In Vitro)
The inhibitory activity of test compounds on the binding between Nrf2 and Keap1 was determined by fluorescence polarization. A solution of 50 mM Tris-HCl pH.8.0 (NACALAI, REF: 06938-15), and 5 mM DTT (SIGMA-ALDRICH, REF: 646563-10X.5 mL) was used as a buffer solution. 8 μL of a buffer solution containing 40 nM GST-fused human Keap1 (amino acid residues: 325-642) protein (Protein tech, REF: Ag0779) was taken in a black 384-well plate (final concentration 20 nM), and 4 μL of the test compound solution prepared to each concentration in buffer solution was added thereto. A well containing a portion of the buffer solution without Keap1 was placed as a negative control. A well with no compound was used as a positive control. 40 nM of FITC-labeled Nrf2 peptide (FITC-X-LQLDEETGEFLPIQ (X=ε-Acp), Peptide Institute Inc.) was added thereto (10 nM final concentration). The wells were incubated at room temperature for 2 hr, and then fluorescence polarization was measured with a plate reader SPECTRAMAX Paradigm (Molecular devices) at excitation wavelength of 485 nm and fluorescence wavelength of 535 nm. The fluorescence polarization of the negative control was set to 100% inhibition and that of the positive control to 0% inhibition, and the inhibitory rate upon addition of the test compound was calculated using the following formula.

[2] = system: NQO1 activity in Hepa1c1c7 cells; assay: NAD(P)H: quinone oxidoreductase-1 (NQO1) enzyme induction assay (in vitro); format: cell-based, mouse; settings: Mus musculus, Hepa-1c1c7, NQO1 activity upon addition of 400 nM of test compound, about 48 hr, ratio from the base without the compound
Procedure: Experimental Example 2: NAD(P)H: Quinone Oxidoreductase-1 (NQO1) Enzyme Induction Assay (In Vitro)
The NQO1 assay was performed based on a previous report (Methods in Enzymology 2004; 382: 243-258). Hepa1c1c7 cells (mouse hepatocyte cell line, ATCC, cat. no. CRL-2026) were cultured in D-MEM medium containing 10% FBS and 1% penicillin/streptomycin (5% CO2, 37° C.), and seeded into 96-well plates (Corning REF. 353072) at 1×10^4 cells/well. A portion of the wells were prepared with medium only for background measurement without seeding cells. The next day, 400 nM of the test compound (0.004% of the final concentration in DMSO) dissolved in DMSO was added thereto, and the wells were incubated for about 48 hr. A well without adding the test compound was prepared for base activity assay in part.
Cell lysate (solution containing 0.8% digitonin, 2 mM EDTA), reaction solution (solution containing 25 mM Tris-HCl, 0.07% albumin, 0.01% Tween-20, 2 U/mL glucose-6-phosphate dehydrogenase, 5 μM flavin adenine dinucleotide, 1 μM glucose-6-phosphate, 30 μM nicotinamide adenine dinucleotide phosphate, 0.03% 3-(4,5-dimethyl-2-thiazolyl)-2,5-diphenyltetrazolium bromide (MTT), and 50 μM menadione), stop solution (solution containing 0.3 mM dicoumarol and 5 mM potassium dihydrogen phosphate, pH 7.4) were prepared. After the medium was removed, 50 μL of the cell lysate was added and incubated at 37° C. for 10 minutes, followed by shaking at room temperature for 10 minutes. 200 μL of reaction solution was added thereto, and allowed to stand for 5 minutes at room temperature. 50 μL of the stop solution was added thereto, and absorbance was measured at 610 nm on a SpectraMax PLUS384 (Molecular devices) or POWERSCAN HT (DS Pharma Biomedical). The test results were analyzed in Excel, and the NQO1 activity upon addition of 400 nM of test compound was calculated as a ratio from the base without the compound.
The results of each test compound in this test are shown in the following Table 2 (A: 5<NQO1 activity ratio, B: 3<NQO1 activity ratio 5, C: 1.5<NQO1 activity ratio 3).

Chain of GST-fused human Keap1 (amino acid residues: 325-642) protein (Q14145 325-624 limits assumed): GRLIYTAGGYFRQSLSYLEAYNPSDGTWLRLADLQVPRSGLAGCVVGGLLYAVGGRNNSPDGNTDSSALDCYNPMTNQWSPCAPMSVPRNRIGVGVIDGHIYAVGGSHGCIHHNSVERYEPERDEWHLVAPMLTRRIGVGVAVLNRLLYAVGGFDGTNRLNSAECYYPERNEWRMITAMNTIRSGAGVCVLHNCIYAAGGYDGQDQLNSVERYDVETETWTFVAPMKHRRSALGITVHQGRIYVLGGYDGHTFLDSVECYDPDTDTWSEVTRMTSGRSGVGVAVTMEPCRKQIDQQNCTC

| IC50 [1] | Structure (SMILES) | fold induction at 0.4 µM [2] |
| --- | --- | --- |
| ≤ 10 nM | CC[C@H]1Cc2ccc(O)nc2CN(Cc2cc([C@@H](CC(=O)O)c3cc(C)c4c(nnn4C)c3C)cc3ccsc23)C1 [Example 87, (3R)-3-(7-{[(6S)-6-Ethyl-2-hydroxy-5,6,7,9-tetrahydro-8H-pyrido[2,3-c]azepin-8-yl]methyl}-1-benzothiophen-5-yl)-3-(1,4,7-trimethyl-1H-benzotriazol-5-yl)propanoic acid] | > 5 |
| 30 to 300 nM | CC[C@@H]1CN(Cc2cc([C@@H](CC(=O)O)c3cc(C)c4c(nnn4C)c3C)cc3ccsc23)Cc2nc(O)ccc2O1 [Example 18, (3R)-3-(7-{[(2R)-2-Ethyl-7-hydroxy-2,3-dihydropyrido[2,3-f][1,4]oxazepin-4(5H)-yl]methyl}-1-benzothiophen-5-yl)-3-(1,4,7-trimethyl-1H-benzotriazol-5-yl)propanoic acid] | > 5 |
| ≤ 10 nM | CC[C@@H]1CN(Cc2cc([C@@H](CC(=O)O)c3cc(Cl)c4c(nnn4C)c3C)cc3ccsc23)Cc2nc(O)ccc2O1 [Example 31, (3R)-3-(7-Chloro-1,4-dimethyl-1H-benzotriazol-5-yl)-3-(7-{[(2R)-2-ethyl-7-hydroxy-2,3-dihydropyrido[2,3-f][1,4]oxazepin-4(5H)-yl]methyl}-1-benzothiophen-5-yl)propanoic acid] | > 5 |
| 10 to 30 nM | CC[C@@H]1CN(Cc2cc([C@H](CC(=O)O)c3cc(C#N)c4c(nnn4C)c3C)cc3ccsc23)Cc2nc(O)ccc2O1 [Example 34, (3S)-3-(7-Cyano-1,4-dimethyl-1H-benzotriazol-5-yl)-3-(7-{[(2R)-2-ethyl-7-hydroxy-2,3-dihydropyrido[2,3-f][1,4]oxazepin-4(5H)-yl]methyl}-1-benzothiophen-5-yl)propanoic acid] | 3 to 5 |
| 30 to 300 nM | CC[C@@H]1CN(Cc2cc([C@@H](CC(=O)O)c3ccc4c(nnn4C)c3C)cc3ccsc23)Cc2nc(O)ccc2O1 [Example 2, (3R)-3-(1,4-Dimethyl-1H-benzotriazol-5-yl)-3-(7-{[(2R)-2-ethyl-7-hydroxy-2,3-dihydropyrido[2,3-f][1,4]oxazepin-4(5H)-yl]methyl}-1-benzothiophen-5-yl)propanoic acid] | > 5 |
| 10 to 30 nM | CC[C@H]1Cc2cccnc2CN(Cc2cc([C@H](CC(=O)O)c3cnc4c(nnn4C)c3C)cc3ccsc23)C1 [Example 76, (3S)-3-(3,7-Dimethyl-3H-[1,2,3]triazolo[4,5-b]pyridin-6-yl)-3-(7-{[(6S)-6-ethyl-5,6,7,9-tetrahydro-8H-pyrido[2,3-c]azepin-8-yl]methyl}-1-benzothiophen-5-yl)propanoic acid] | > 5 |
| 10 to 30 nM | CC[C@@H]1CN(Cc2cc([C@@H](CC(=O)O)c3cnc4c(nnn4C)c3C)cc3ccsc23)Cc2nc(N)ccc2O1 [Example 67, (3R)-3-(7-{[(2R)-7-Amino-2-ethyl-2,3-dihydropyrido[2,3-f][1,4]oxazepin-4(5H)-yl]methyl}-1-benzothiophen-5-yl)-3-(3,7-dimethyl-3H-[1,2,3]triazolo[4,5-b]pyridin-6-yl)propanoic acid] | > 5 |
| 10 to 30 nM | CC[C@@H]1CN(Cc2cc([C@H](CC(=O)O)c3cc(C(F)(F)F)c4c(nnn4C)c3C)cc3ccsc23)Cc2nc(O)ccc2O1 [Example 30, (3S)-3-[1,4-Dimethyl-7-(trifluoromethyl)-1H-benzotriazol-5-yl]-3-(7-{[(2R)-2-ethyl-7-hydroxy-2,3-dihydropyrido[2,3-f][1,4]oxazepin-4(5H)-yl]methyl}-1-benzothiophen-5-yl)propanoic acid] | > 5 |
| ≤ 10 nM | CC[C@@H]1CN(Cc2cc([C@H](CC(=O)O)c3ccc4c(nnn4C)c3C)cc3ccsc23)Cc2nc(N)ccc2O1 [Example 56, (3S)-3-(7-{[(2R)-7-Amino-2-ethyl-2,3-dihydropyrido[2,3-f][1,4]oxazepin-4(5H)-yl]methyl}-1-benzothiophen-5-yl)-3-(1,4-dimethyl-1H-benzotriazol-5-yl)propanoic acid] | > 5 |
| 30 to 300 nM | Cc1c(C(CC(=O)O)c2cc(CN3Cc4nc(O)ccc4OC4(CC4)[C@@H]3C)c3sccc3c2)ccc2c1nnn2C (single isomer, unassigned) [Example 60, (3R*)-3-(1,4-Dimethyl-1H-benzotriazol-5-yl)-3-(7-{[(3′S)-7′-hydroxy-3′-methyl-3′H-spiro[cyclopropane-1,2′-pyrido[2,3-f][1,4]oxazepin]-4′(5′H)-yl]methyl}-1-benzothiophen-5-yl)propanoic acid] | > 5 |
| 30 to 300 nM | CC[C@@H]1CN(Cc2cc([C@@H](CC(=O)O)c3ccn4c(C)nnc4c3C)cc3ccsc23)Cc2nc(O)ccc2O1 (single isomer, unassigned) [Example 52, (3R*)-3-(3,8-Dimethyl[1,2,4]triazolo[4,3-a]pyridin-7-yl)-3-(7-{[(2R)-2-ethyl-7-hydroxy-2,3-dihydropyrido[2,3-f][1,4]oxazepin-4(5H)-yl]methyl}-1-benzothiophen-5-yl)propanoic acid] | 3 to 5 |
| 10 to 30 nM | CC[C@@H]1CN(Cc2cc([C@H](CC(=O)O)c3cc(Cl)c4c(nnn4C)c3C)cc3ccsc23)Cc2nc(O)ccc2O1 [Example 32, (3S)-3-(7-Chloro-1,4-dimethyl-1H-benzotriazol-5-yl)-3-(7-{[(2R)-2-ethyl-7-hydroxy-2,3-dihydropyrido[2,3-f][1,4]oxazepin-4(5H)-yl]methyl}-1-benzothiophen-5-yl)propanoic acid] | > 5 |
| 10 to 30 nM | CC[C@@H]1CN(Cc2cc([C@@H](CC(=O)O)c3ccc4c(nnn4CC(F)(F)F)c3C)cc3ccsc23)Cc2nc(O)ccc2O1 (single isomer, unassigned) [Example 27] | > 5 |
| 10 to 30 nM | CC[C@@H]1CN(Cc2cc([C@@H](CC(=O)O)c3cc(OC(F)F)c4c(nnn4C)c3C)cc3ccsc23)Cc2nc(O)ccc2O1 [Example 43, (3R)-3-[7-(Difluoromethoxy)-1,4-dimethyl-1H-benzotriazol-5-yl]-3-(7-{[(2R)-2-ethyl-7-hydroxy-2,3-dihydropyrido[2,3-f][1,4]oxazepin-4(5H)-yl]methyl}-1-benzothiophen-5-yl)propanoic acid] | > 5 |
| 300 to 3000 nM | Cc1c([C@@H](c2cc(CN3Cc4nc(O)ccc4OC4(CC4)C3)c3sccc3c2)C(C)(C)C(=O)O)ccc2c1nnn2C [Example 47, (3R)-3-(1,4-Dimethyl-1H-benzotriazol-5-yl)-3-{7-[(7′-hydroxy-3′H-spiro[cyclopropane-1,2′-pyrido[2,3-f][1,4]oxazepin]-4′ (5′H)-yl)methyl]-1-benzothiophen-5-yl}-2,2-dimethylpropanoic acid] | 1.5 to 3 |
| ≤ 10 nM | CC[C@@H]1CN(Cc2cc([C@@H](CC(=O)O)c3ccc4c(nnn4C)c3C)cc3ccsc23)Cc2nc(NC)ccc2O1 [Example 77, (3R)-3-(1,4-Dimethyl-1H-benzotriazol-5-yl)-3-(7-{[(2R)-2-ethyl-7-(methylamino)-2,3-dihydropyrido[2,3-f][1,4]oxazepin-4(5H)-yl]methyl}-1-benzothiophen-5-yl)propanoic acid] | > 5 |
